Data reported in patent EP0171342A1, “Substituted 2-(1-amino-akylidenyl)1,3-indane diones, process for their preparation and their therapeutical use” (priority 1984, dated 1986).
In brackets after ≈: the same amount, converted by molar mass. Like-named read-outs stand apart in the source and are kept apart here.

Assays:
[1] = test system: segments isolés d'iléon de cobaye; experiment: Antihistamine activity: histamine-induced contraction of isolated guinea pig ileum; conditions: 50 microg/ml, response induced by 0,5 microg/ml histamine
From the text: L'activité antihistaminique a été appréciée in vitro par l'inhibition de la réponse contractile de segments isolés d'iléon de cobaye induite par 0,5 microg/ml d'histamine.

[2] = test system: oedème induit par l'injection intraplantaire de carragénine chez le rat; experiment: Anti-inflammatory activity: carrageenan paw oedema in rats; assay type: in vivo; conditions: oral 1 h before carrageenan, measured 3 h after, dose 10b mg/kg [sic]
Protocol: L'activité antiinflammatoire a été déterminée chez le rat par la mesure de l'inhibition de l'oedème induit par l'injection intraplantaire de 0,1 ml d'une suspension à 1% de carragénine chez le rat. Les produits à tester sont administrés par voie orale lh avant l'injection de carragénine et la mesure est réalisée 3h après cette injection. Les COR3789, COR3792, COR4003, COR4008 et COR4010 administrés à 10b mg/kg entrainent respectivement 43, 42, 41, 38 et 39% d'inhibition. Administré à 200 mg/kg, le COR3773 entraine 53% d'inhibition. L'aspirine administrée dans les mêmes conditions à 150 mg/kg entraine 40% d'inhibition de l'oedème.

[3] = test system: segments d'iléon de cobaye isolés; experiment: Anticholinergic activity: acetylcholine-induced contractions of isolated guinea pig ileum; conditions: Cavia porcellus; contractions induced by 0,1 microg/ml acetylcholine; read-out: concentration qui inhibe ces contractions de 80%
From the text: L'activité anticholinergique a été appréciée par la mesure des contractions induites par 0,1 microg/ml d'acétylcholine sur des segments d'iléon de cobaye isolés. Les COR3760, COR3789, COR3792, COR4003, COR4008, COR4010, COR4014 utilisés respectivement aux concentrations de 50, 25, 25, 50, 25, 10, 25 microg/ml inhibent ces contractions de 80%.

[4] = test system: poumon de cobaye isolé perfusé; experiment: Bronchodilator activity: isolated perfused guinea pig lung contracted by methacholine; conditions: flow of Tyrode solution, lung contracted by 0,05 microg/ml methacholine; read-out: concentration qui augmente ce débit de 50%
[5] = test system: rat soumis à une surcharge hydrique; experiment: Diuretic activity in rats given a water overload, oral; assay type: in vivo; conditions: rat, water overload, oral
Procedure, shortened: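 Oral dosing (5–80 mg/kg) to rats under water overload, or to rats and mice under saline overload. Urine volume and excreted sodium and potassium measured over 6 h, expressed as change versus control animals; Na/K ratio also derived.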

souris = experiment: Acute toxicity (mortality, LD50) in mice; assay type: in vivo; conditions: mouse
[6] = target: oreillettes droites de cobaye (Cavia porcellus, UniProt P47747); experiment: Anti-H2 activity: histamine-induced chronotropic effect on unstimulated guinea pig right atria
oreillettes droites de cobaye, sequence (P47747 whole entry): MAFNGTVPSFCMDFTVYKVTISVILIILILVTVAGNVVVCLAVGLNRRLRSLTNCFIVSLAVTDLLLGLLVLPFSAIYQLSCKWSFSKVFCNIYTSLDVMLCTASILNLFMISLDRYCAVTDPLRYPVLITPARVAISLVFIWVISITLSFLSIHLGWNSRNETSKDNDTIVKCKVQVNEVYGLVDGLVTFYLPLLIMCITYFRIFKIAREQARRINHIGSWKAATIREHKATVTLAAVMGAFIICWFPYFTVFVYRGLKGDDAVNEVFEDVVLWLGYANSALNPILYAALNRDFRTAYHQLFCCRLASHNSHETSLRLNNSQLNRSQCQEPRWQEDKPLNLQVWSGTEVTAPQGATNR

[7] = test system: rat Wistar soumis à une surcharge saline; experiment: Diuretic activity in selected Wistar rats given a saline overload (modified Wiebelhaus test); assay type: in vivo
Procedure, shortened: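 Selected Wistar rats under saline overload (modified Wiebelhaus test) received compound at 20 mg/kg. Urine volume and sodium excretion were measured over 6 h, expressed as % increase, with Na/K ratio also assessed.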

Structure (SMILES): CCC(NC)=C1C(=O)c2ccccc2C1=O [COR4003, (Méthylamino-1 propylidényl)-2 indanedione-1,3]
- inhibition de la réponse contractile [1]: inhibe cette réponse
- inhibition de l'oedème [2]: 41%
- IC80 [3]: 50 µg/mL (≈ 232 µM)
- EC50 [4]: 10 µg/mL (≈ 46.5 µM)
- facteur multipliant l'excrétion sodique ([5]; 10 mg/kg): 2,4
- response vs control in vivo at 20 mg/kg ([5]; 20 mg/kg, read-out: facteur multipliant l'excrétion urinaire du sodium): 720%
- mortalité (souris; intraperitoneal, 200 mg/kg): aucune mortalité
- mortalité (souris; oral, 300 mg/kg): aucune mortalité
- effet chronotrope négatif intrinsèque ([6]; at the concentration inhibiting the histamine effect by 50 % (COR4003 100, COR4011 50 microg/ml)): ne présentant pas d'effet chronotrope négatif intrinsèque
- IC50 ([6]; chronotropic effect induced by 5 microg/ml histamine, read-out: concentration qui inhibe de 50 % cet effet chronotrope (converted)): 465 µM
- change in vivo at 20 mg/kg ([7]; 6 h, read-out: augmentation de l'excrétion urinaire volumétrique mesurée au bout de 6 heures): 56%
- change in vivo at 20 mg/kg ([7]; read-out: augmentation de l'excrétion urinaire du sodium): 56%
